Data published in paper PMC11444201, “A Novel Tetrahydroacridine Derivative with Potent Acetylcholinesterase Inhibitory Properties and Dissociative Capability against Aβ42 Fibrils Confirmed by In Vitro Studies” (International Journal of Molecular Sciences, 2024).
Where a name gives a salt, the structure may show the parent alone.

Tests used:
[1] = target: acetylcholinesterase (AChE) (Electrophorus electricus, UniProt O42275); assay: modified Ellman spectrophotometric assay with isolated enzyme; type: biochemical
acetylcholinesterase (AChE), sequence (O42275 24-633): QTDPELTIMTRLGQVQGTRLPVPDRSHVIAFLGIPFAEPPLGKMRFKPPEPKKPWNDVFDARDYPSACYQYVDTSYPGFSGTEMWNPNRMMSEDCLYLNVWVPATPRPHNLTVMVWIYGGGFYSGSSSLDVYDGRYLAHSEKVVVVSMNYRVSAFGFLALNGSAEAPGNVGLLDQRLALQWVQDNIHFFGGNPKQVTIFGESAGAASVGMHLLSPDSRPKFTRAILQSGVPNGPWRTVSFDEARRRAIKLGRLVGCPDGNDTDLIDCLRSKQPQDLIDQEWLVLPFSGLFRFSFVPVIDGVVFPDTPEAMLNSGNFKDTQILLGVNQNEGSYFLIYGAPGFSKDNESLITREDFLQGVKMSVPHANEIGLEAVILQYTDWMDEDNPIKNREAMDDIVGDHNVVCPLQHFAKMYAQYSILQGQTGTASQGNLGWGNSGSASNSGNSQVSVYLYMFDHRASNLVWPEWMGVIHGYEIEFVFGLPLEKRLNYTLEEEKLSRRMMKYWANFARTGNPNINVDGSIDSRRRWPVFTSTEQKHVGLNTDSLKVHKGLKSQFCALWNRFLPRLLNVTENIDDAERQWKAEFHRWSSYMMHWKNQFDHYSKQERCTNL

[2] = target: T1, amyloid β 1-42 (Aβ42) fibrils (Homo sapiens, UniProt P05067); assay: thioflavin T fluorescence fibril dissociation assay (DC50), supported by AFM; type: biochemical
T1 construct: gene APP; amyloid β 1-42 peptide, preformed fibrils
T1 sequence (P05067 672-713): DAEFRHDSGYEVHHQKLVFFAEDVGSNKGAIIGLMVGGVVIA

Clc1cc2c3c(c4c(nc3c1)CCCC4)NCCN2 [CHDA, 6-chloro-1,2,3,4,9,10,11,12-octahydro-[1,4]-diazepine-[5,6,7-kl]-acridine Monohydrochloride]
IC50 [1]: 18.5 ± 5.68 nM
DC50 [2]: 70800 nM
